One data set relates to MCF-7. The data set is described as follows: Resazurin reduction cell viability assay, MCF-7. The class given is cell-based, human. Particulars: 72 h of treatment; mean ± sd. How it is done: (§1) The compounds under investigation were tested on a panel of commercial human cancer cell lines: ovarian endometrioid adenocarcinoma A2780 (ICLC HTL98008), its cisplatin-resistant variant A2780cisR (ECACC 93112517), colon carcinoma HCT 116 (ECACC 91091005), breast invasive ductal carcinoma MCF7 (ECACC 86012803), embryonal carcinoma NTERA-2 clone D1 (also known as NT2/D1, ICLC HTL97025), and lung adenocarcinoma A549 (ICLC HTL03001). Furthermore, a cell line derived from the pleural effusion of a patient with untreated malignant pleural mesothelioma (MPM) was added to the panel, namely, MM98 (sarcomatoid phenotype). Commercial cells were purchased from the European Collection of Authenticated Cell Cultures (ECACC, UK) or the Interlab Cell Line Collection (ICLC, Genoa, Italy), while the MM98 cell line was obtained from the Pathology Unit of the National Hospital of Alessandria (Italy).
(§2) The following media were used to grow the cells: RPMI 1640 (for A2780, A2780cisR, NT2/D1, and A549 cells), DMEM (for MCF7 cells), DMEM supplemented with nonessential amino acids (for MM98 cells), and McCoy's 5A (for HCT 116 cells). All media contained L-glutamine (2 mM) and were added with penicillin (100 IU·mL^−1), streptomycin (100 mg·L^−1), and 10% heat inactivated FBS. To maintain resistance in A2780cisR cells, cisplatin (1 μM) was added to the medium every two passages.
(§3) Continuous treatments (CT) were carried out at 37°C in a humidified chamber with 5% CO2. Cisplatin was dissolved in a 0.9% w/v NaCl aqueous solution and brought to pH = 3 with HCl (final stock concentration 1 mM). The Pt(IV) Complexes 1–3 were dissolved in milliQ water (final stock concentration 5 mM) and stored at −20°C. The stock concentration was confirmed with inductively coupled plasma-mass spectrometry (ICP-MS) measurements. The mother solutions were diluted in a complete medium to the required concentration.
(§4) To assess the growth inhibition of the compounds under investigation, a cell viability test (i.e., the resazurin reduction assay) was used. […] At the end of the treatment (72 h), viability was evaluated with 100 μg·mL^−1 resazurin (Acros Chemicals, France) in a fresh medium for 1 h at 37°C, and the amount of the reduced product, resorufin, was measured by fluorescence (excitation λ = 535 nm, emission λ = 595 nm) with a Tecan Infinite F200Pro plate reader (Tecan, Austria). In each experiment, cells were challenged with drug candidates at different concentrations, and the final data were calculated from at least three replicates of the same experiment performed in triplicate. The fluorescence of 8 wells containing a medium without cells was used as a blank. Fluorescence data were normalized to 100% cell viability for nontreated cells. […]
(The colour change of resazurin is a common sign of viable cells or microbes.)

For another data set, the system named is A2780. In words: Resazurin reduction cell viability assay, A2780. Conditions: 72 h of treatment; mean ± sd. The class given is cell-based, human. How it is done:
as §1, §2, §3, §4

Another data set deals with MM98. In words: Resazurin reduction cell viability assay, MM98. The class given is cell-based, human. Particulars: 72 h of treatment; mean ± sd. How it is done: as §1, §2, §3, §4
The subject of a further data set is NT2-D1. The data set is described as follows: Resazurin reduction cell viability assay, NT2-D1. The class given is cell-based, human. Particulars: 72 h of treatment; mean ± sd. How it is done:
as §1, §2, §3, §4

A short description of data set [1]: Immobilized artificial membrane (IAM) chromatography, log KW. The class given is physicochemical. Particulars: IAM column; log k′ extrapolated to fully aqueous mobile phase. How it is done: Retention times, tR, were measured on two columns: (i) a standard C18 column (Phenomenex Phenosphere-NEXT, 250 × 4.6 mm, 5 μm) and (ii) an IAM.PC.DD.2 column (Regis, 10 cm × […], 10 μm packing 300 Å pore size), prepared by covalently bonding cell-membrane-forming phospholipids to silica. On (i), a chromatogram was performed for each complex (0.25 mM) in a fixed eluent composition (30% methanol/70% aqueous 15 mM formic acid; flow rate 0.5 mL·min^−1) using a Waters HPLC-MS instrument (equipped with an Alliance 2695 separation module, a 2487 dual lambda absorbance detector, and a 3100 mass detector). The UV-vis detector was set at 210 nm. In (ii), the mobile phase consisted of 20 mM ammonium acetate buffer at pH 6.9 and acetonitrile flowing at 1 mL·min^−1. The samples were dissolved in the mobile phase in a concentration range of 50–100 μg·mL^−1. An HPLC Varian ProStar instrument equipped with a 410 autosampler, a PDA 335 LC detector, and Galaxie Chromatography Data System Version 1.9.302.952 was used.
The different tRs were used to calculate log k′, which is the logarithm of the retention factor k′ = (tR − t0)/t0, where t0 is the column dead time (i.e., the tR of KCl or citric acid used as the internal reference for (i) and (ii), respectively).
In the case of IAM, the log KW values were calculated by an extrapolation method. Log k′ values were determined at a minimum of three different percentages of acetonitrile (ϕ) in the mobile phases (from 10 to 50%, v/v), and the intercept values of the linear relationships between log k′ and ϕ values were assumed as log KW [65, 66].
Immobilized artificial membrane (IAM) chromatography is a complementary technique for evaluating the interaction of a drug with the cellular membrane. In this technique, the stationary silica phase is covalently bonded to phospholipids, giving a material that is more similar to the cell membrane than the simpler aliphatic chains of the RP-HPLC columns. The log KW values (i.e., log k′ values extrapolated at fully aqueous mobile phase) show the same trend for the three Pt(IV) complexes (log KW = −0.64, −1.06, −0.96, and −0.83 for cisplatin, 1, 2, and 3, respectively) (Table 1).

Details of data set [2]: method as in PMID 32296997. Conditions: 37°C, ten-fold excess of ascorbic acid; cited from earlier work.
The nature of data set [3]: Stability in cell culture medium (HPLC-MS). The class given is physicochemical. Particulars: 72 h, 37°C, dark, RPMI 1640 + 10% FBS, 100 μM. How it is done: The stability in the solution of Complexes 1–3 (100 μM) was studied by aging the compounds for 72 h at 37°C in the dark in the same cell culture medium employed for the A2780 cell line (i.e., RPMI 1640 medium added with 10% fetal bovine serum, FBS). The area of the chromatographic peaks of the Pt complexes was monitored in HPLC-MS, using a 70 : 30 mixture of 15 mM aqueous HCOOH and CH3OH as the mobile phase (see Section 2.3, settings i), for further instrumental details). ESI mass spectra, recorded using cone and capillary voltages of +30 V (positive ion mode) and 2.70 kV, were used to confirm the identity of the species.

Details of data set [4]: method as in PMID 32296997. Conditions: vs. Ag/AgCl, 3M KCl, glassy carbon electrode, scan rate 0.2 V·s^−1; cited from earlier work.

We go through four compounds from publication PMC9822769, “The Strange Case: The Unsymmetric Cisplatin-Based Pt(IV) Prodrug [Pt(CH3COO)Cl2(NH3)2(OH)] Exhibits Higher Cytotoxic Activity with respect to Its Symmetric Congeners due to Carrier-Mediated Cellular Uptake” (Bioinorganic Chemistry and Applications, 2022).

The IC50 is the point on the concentration scale where inhibition reaches its midpoint. Read a low IC50 as inhibition by little substance. As for `N.N.[Cl][Pt][Cl]` [Cisplatin, (SP-4-2)-diamminedichloridoplatinum(II)], the IC50 in the data set with MCF-7 amounted to 6.46 ± 0.91 µM; in the data set with A2780, 480 ± 120 nM; in the data set on MM98 it was 3.2 ± 1.02 µM; in the data set on NT2-D1, 100 ± 40 nM. Further, in data set [1], the “Log KW” value is −0.64.
In the case of `N.N.[OH][Pt]([OH])([Cl])[Cl]` [Complex 1, (OC-6-33)-diamminedichloridodihydroxidoplatinum(IV)], the “t ½” value in data set [2] is 8.6 min. The IC50 is 78.1 ± 5.6 µM in the data set with MCF-7, 3710 ± 1930 nM with A2780, greater than 100 µM in the data set with MM98 and 1440 ± 160 nM with NT2-D1. Further, the “remaining intact, % of the original HPLC peak” value in data set [3] is reported as greater than 95%. Moreover, the “E p (reduction peak potential)” value in data set [4] is −0.815 V. For the same compound, in data set [1], the “Log KW” value is listed as −1.06.
In the case of `CC(=O)[O][Pt]([OH])([Cl])[Cl].N.N` [Complex 2, (OC-6-44)-acetatodiamminedichloridohydroxidoplatinum(IV)], in data set [2], the “t ½” value was 20.5 min. The IC50 with MCF-7 was found to be 8.86 ± 3.45 µM; in the data set with A2780, 160 ± 50 nM; in the data set on MM98 it was 3.67 ± 1.32 µM; in the data set on NT2-D1, 210 ± 80 nM. For the same compound, the partial hydrolysis result in data set [3] is reported as “approximately 40%”. Further, the “E p (reduction peak potential)” value in data set [4] is listed as −0.618 V. In data set [1], the “Log KW” value is reported as −0.96.
Regarding `CC(=O)[O][Pt]([NH2])([NH2])([Cl])([Cl])[O]C(C)=O` [Complex 3, (OC-6-33)-diamminedichloridodiacetatoplatinum(IV)], the “t ½” value in data set [2] is given as 528 min. In addition, the IC50 in the data set with MCF-7 was greater than 100 µM; in the data set with A2780, 12100 ± 5200 nM; in the data set with MM98 it was greater than 100 µM; in the data set with NT2-D1, 4300 ± 1130 nM. For the same compound, the “remaining intact, % of the original HPLC peak” value in data set [3] is listed as greater than 85%. Further, in data set [4], the “E p (reduction peak potential)” value is reported as −0.486 V. In addition, the “Log KW” value in data set [1] is on record as −0.83.
